Consider two compounds from patent publication US20200170244A1, “METHODS FOR PRESERVING, TRANSPORTING AND STORING LIVING BIOLOGICAL MATERIALS” (priority 2013, published 2020).

“Also recorded” adds a separate entry of the source.

For the test, the system named is keratinocytes. Kind of test: Effect of vanadium compounds on proliferation of keratinocytes (hair follicle culture, cell count). In kind it is cell-based. The note with it: 14 days at 31° C.; for amount of proliferated keratinocytes (number of cells per ml of culture medium): 1 mg/ml in basic SFK growth serum, relative to control SFK without vanadium compound. How it is done: Method: The hair follicles were transferred to a 24-well culture disk containing dSFK with […] penicillin (Life Technologies B.V. Breda, The Netherlands) and 0.25 μg/ml streptomycin (Life Technologies B.V. Breda, The Netherlands), and placed for 14 days in a culture medium at 31° C. in a humidified atmosphere containing 5% CO2. Three different culture medium were used: • Treatment group oxovanadium (OVAN): The culture medium is a composition comprising a basic SFK growth serum (purchased from the supplier SFK, Enschede The Netherlands) supplemented with either 1 mg/ml of OVAN. • Treatment group bis (maltolato) oxovanadium (BMOV): The culture medium is a composition comprising a basic SFK growth serum (purchased from the supplier SFK, Enschede The Netherlands) supplemented with either 1 mg/ml of BMOV. • Control group: The control situation consists of a composition comprising the SFK basic growth serum but without the vanadium compounds (i.e. OVAN or BMOV).
The respective culture media were carefully removed every three days and replaced by fresh culture media. The cells remained attached to the hair follicles during this culture period. After 14 days the culture medium was removed and replaced by a 0.5 mg/ml trypsin, 0.2 mg/ml EDTA (ethylene diaminetetraacetic acid) solution (Life Technologies B.V. Breda, The Netherlands), and incubated for 5 minutes at 37° C. in this medium. After this incubation period clusters of cells were released from the hair follicles. These were harvested by centrifugation at 300 g at 4° C. for 5 minutes in a Eppendorf 5804R Centrifuge (VWR International, The Netherlands). Number of cells were counted and expressed as amount of proliferated cells per ml of culture medium.

For the compound `Cc1occc(=O)c1[O-].Cc1occc(=O)c1[O-].[O]=[V+2]` [BMOV, bis(maltolato)oxovanadium], the “amount of proliferated keratinocytes (number of cells per ml of culture medium)” value was “significantly increased; also recorded: enhanced proliferation”. Under “1 mg/ml each in basic SFK growth serum”, the “proliferated keratinocytes, BMOV compared with OVAN” value was “more potent than OVAN; also recorded: greater number of proliferated cells relative to treatment with OVAN”.

Consider oxovanadium, for which the “amount of proliferated keratinocytes (number of cells per ml of culture medium)” value is “significantly increased; also recorded: enhanced proliferation”.
